# Assay results published in patent US7238689B2, “Isoxazoline derivative and herbicide comprising the same as active ingredient” (Ihara Chemical Industry Co., Ltd., priority 2001, dated 2007).
# Key:
# [1] = tested on: Echinochloa oryzicola Vasing; experiment: Herbicidal effect by paddy field soil treatment; assay type: in vivo; set-up: scale not given here; conditions: wettable powder, active ingredient 1000 g/ha, examined at the 21st day from the treatment
# Summary of the method: (§1)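 Seeds sown in puddled paddy soil under 3 cm of water; the next day wettable powders diluted in water were dropped onto the water surface at 1,000 g active ingredient/ha. Plants grown in a greenhouse, with herbicidal effect scored on day 21 against a rating standard.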
# [2] = tested on: Monochoria vaginalis (Murm. f.) Presl var. plantaginea (Roxb.) Solms-Laub.; experiment: Herbicidal effect by paddy field soil treatment; assay type: in vivo; set-up: scale not given here; conditions: wettable powder, active ingredient 1000 g/ha, examined at the 21st day from the treatment
# Summary of the method: as §1
# [3] = tested on: Echinochloa crus-galli (L.) Beauv. var. crusgalli; experiment: Herbicidal effect by upland field soil treatment; assay type: in vivo; set-up: scale not given here; conditions: active ingredient 1000 g/ha, examined at 21st day from treatment
# Description: (§2) An upland field soil was filled in a plastic pot of 80 cm^2. Seeds of Echinochloa crus-galli (L.) Beauv. var. crusgalli and Setaria viridis (L.) Beauv. were sowed, followed by covering with the same soil. […] Then, breeding was made in a greenhouse, and the herbicidal effect of each wettable powder was examined at the 21st day from the treatment in accordance with the standard shown in Table 21.
# [4] = tested on: Setaria viridis (L.) Beauv.; experiment: Herbicidal effect by upland field soil treatment; assay type: in vivo; set-up: scale not given here; conditions: active ingredient 1000 g/ha, examined at 21st day from treatment
# Description: as §2
# [5] = tested on: Echinochloa crus-galli (L.) Beauv. var. crus-galli; experiment: Herbicidal effect by upland foliage treatment; assay type: in vivo; set-up: scale not given here; conditions: active ingredient 1000 g/ha, examined at 14th day from treatment
# Summary of the method: (§3)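 Two-week-old greenhouse plants in sand were sprayed over the whole foliage with water-diluted wettable powder at 1,000 liters per hectare, giving 1,000 g active ingredient per hectare. Herbicidal effect scored on a rating standard at day 14 after treatment.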
# [6] = tested on: Setaria viridis (L.) Beauv.; experiment: Herbicidal effect by upland foliage treatment; assay type: in vivo; set-up: scale not given here; conditions: active ingredient 1000 g/ha, examined at 14th day from treatment
# Summary of the method: as §3
Compound,"Herbicidal effect index, Echinochloa oryzicola Vasing [1]","Herbicidal effect index, Monochoria vaginalis (Burm. F.) Presl var. plantaginea (Roxb.) Solms-Laub. [2]","herbicidal effect (index per standard of Table 21), Echinochloa curs-galli (L.) Beauv. Var. crus-galli [3]","herbicidal effect (index per standard of Table 21), Setaria viridis (L.) Beauv. [4]","herbicidal effect (index per standard of Table 21), Echinochloa curs-galli (L.) Beauv. Var. crus-galli [5]","herbicidal effect (index per standard of Table 21), Setaria viridis (L.) Beauv. [6]",melting point [°C]
"COc1c(CS(=O)(=O)C2=NOC(C)(C)C2)c(C(F)(F)F)nn1C [3-0013, 5,5-dimethyl-3-(5-methoxy-1-methyl-3-trifluoromethyl-1H-pyrazol-4-ylmethylsulfonyl)-2-isoxazoline]",5,5,5,5,5,5,113 to 114
"Cn1nc(C(F)(F)F)c(CS(=O)(=O)C2=NOC(C)(C)C2)c1OC1CCCC1 [3-0015, 3-(5-cyclopentyloxy-1-methyl-3-trifluoromethyl-1H-pyrazol-4-ylmethylsulfonyl)-5,5-dimethyl-2-isoxazoline]",5,5,5,5,5,4,113 to 114
